Reference: patent US11253517B2, “Small molecule regulators of steroid receptor coactivators and methods of use thereof” (BAYLOR COLLEGE OF MEDICINE, priority 2016, dated 2022)

Tests used:
MDA-MB-231 tumor cells = assay: MDA-MB-231 xenograft model (luciferase imaging); format: in vivo, Nude mice; details: 4 mg/kg 5 times per week, five-week period
Protocol: The quantitated luciferase activity is shown in the graph in FIG. 4.
SI-12 was evaluated in a MDA-MB-231 model where the MDA-MB-231 tumor cells were stably transfected with a luciferase expression vector. Nude mice had 2.5×10^5 tumor cells implanted into cleared mammary fat pads of nude mice. The progression of tumors in control and SI-12 treated animals (4 mg/kg 5 times per week) was followed by luciferase imaging of the mice over a five-week period.

ROCK1 = target: T1, ROCK1 (Homo sapiens, UniProt Q13464); assay: Kinase-Glo Luminescent Kinase Assay; format: biochemical
T1 construct: purchased Promega
T1 sequence (Q13464 whole entry): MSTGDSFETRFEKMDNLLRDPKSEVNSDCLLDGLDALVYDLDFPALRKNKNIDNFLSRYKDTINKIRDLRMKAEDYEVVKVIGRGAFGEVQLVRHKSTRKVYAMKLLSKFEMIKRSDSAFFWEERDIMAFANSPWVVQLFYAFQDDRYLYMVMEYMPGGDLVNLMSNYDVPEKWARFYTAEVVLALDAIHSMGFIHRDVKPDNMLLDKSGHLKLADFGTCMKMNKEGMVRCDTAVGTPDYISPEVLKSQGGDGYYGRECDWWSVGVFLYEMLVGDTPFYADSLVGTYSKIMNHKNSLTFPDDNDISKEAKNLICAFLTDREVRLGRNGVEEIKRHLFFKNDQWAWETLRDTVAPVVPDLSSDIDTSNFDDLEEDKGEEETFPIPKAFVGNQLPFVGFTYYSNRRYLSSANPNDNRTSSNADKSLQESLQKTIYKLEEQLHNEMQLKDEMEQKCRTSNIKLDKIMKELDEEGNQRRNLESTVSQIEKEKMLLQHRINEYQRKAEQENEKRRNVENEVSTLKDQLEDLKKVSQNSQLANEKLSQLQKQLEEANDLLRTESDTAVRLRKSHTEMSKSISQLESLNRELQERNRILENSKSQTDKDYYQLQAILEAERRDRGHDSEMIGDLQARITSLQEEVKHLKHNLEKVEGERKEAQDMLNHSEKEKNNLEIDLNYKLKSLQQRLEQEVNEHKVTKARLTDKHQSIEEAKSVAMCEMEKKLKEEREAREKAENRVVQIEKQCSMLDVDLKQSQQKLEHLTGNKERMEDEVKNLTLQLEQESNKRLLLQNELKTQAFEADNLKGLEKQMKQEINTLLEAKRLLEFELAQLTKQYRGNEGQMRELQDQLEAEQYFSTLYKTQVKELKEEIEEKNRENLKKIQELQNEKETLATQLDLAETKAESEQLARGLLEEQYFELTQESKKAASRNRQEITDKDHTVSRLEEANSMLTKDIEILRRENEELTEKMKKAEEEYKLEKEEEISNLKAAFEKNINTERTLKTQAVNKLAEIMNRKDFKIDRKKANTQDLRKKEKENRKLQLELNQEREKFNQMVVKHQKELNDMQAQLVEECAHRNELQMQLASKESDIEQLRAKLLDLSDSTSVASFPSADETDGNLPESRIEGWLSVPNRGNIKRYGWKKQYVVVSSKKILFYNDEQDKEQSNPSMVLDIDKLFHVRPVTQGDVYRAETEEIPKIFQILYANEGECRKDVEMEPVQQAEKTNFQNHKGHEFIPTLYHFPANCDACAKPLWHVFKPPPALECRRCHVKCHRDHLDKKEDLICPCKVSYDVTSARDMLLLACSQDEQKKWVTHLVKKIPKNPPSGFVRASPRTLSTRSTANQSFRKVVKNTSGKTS
Protocol: (§1) SI-12 was also tested for its ability to disrupt kinase activity. The effects of the compound were tested on a panel of 24 kinases using a Kinase-Glo Luminescent Kinase Assay system (Promega; Madison, Wis.). SI-12 was tested, at concentrations of 1000 nM, 50 nM, and 5 nM, for its ability to interfere with recombinant kinases in the assay system. The amount of ATP to ADP conversion in the presence of SI-12 was compared to a DMSO vehicle control. The values shown in Table 3 represent the percentage of kinase activity compared to a DMSO vehicle control.
(§2) In Table 3, “−” represents less than 20% inhibition; “+” represents from 20% to 40% inhibition; “++” represents from 40% to 60% inhibition; and “+++” represents greater than 60% inhibition.

PAK1/CDC42 = target: T2, PAK1/CDC42 (Homo sapiens, UniProt Q13153); assay: Kinase-Glo Luminescent Kinase Assay; format: biochemical
T2 construct: purchased Promega
T2 sequence (Q13153 whole entry): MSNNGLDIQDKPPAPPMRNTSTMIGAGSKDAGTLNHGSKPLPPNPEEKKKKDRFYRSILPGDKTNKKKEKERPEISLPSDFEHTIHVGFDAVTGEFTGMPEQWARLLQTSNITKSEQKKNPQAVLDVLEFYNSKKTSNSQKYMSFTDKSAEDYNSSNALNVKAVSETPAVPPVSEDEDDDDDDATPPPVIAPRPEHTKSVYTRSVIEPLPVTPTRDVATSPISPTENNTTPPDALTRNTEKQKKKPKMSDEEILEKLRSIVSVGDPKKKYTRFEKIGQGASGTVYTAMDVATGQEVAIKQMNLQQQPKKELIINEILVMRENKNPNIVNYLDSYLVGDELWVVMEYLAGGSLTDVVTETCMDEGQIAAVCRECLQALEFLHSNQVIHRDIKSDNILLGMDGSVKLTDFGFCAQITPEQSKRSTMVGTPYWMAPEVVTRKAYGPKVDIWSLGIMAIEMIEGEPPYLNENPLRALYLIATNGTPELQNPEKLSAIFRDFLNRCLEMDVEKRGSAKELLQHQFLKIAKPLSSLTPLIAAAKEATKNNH
Protocol: as §1, §2

SYK = target: T3, SYK (Homo sapiens, UniProt P43405); assay: Kinase-Glo Luminescent Kinase Assay; format: biochemical
T3 construct: purchased Promega
Protocol: as §1, §2

MINK1 = target: T4, MINK1 (Homo sapiens, UniProt Q8N4C8); assay: Kinase-Glo Luminescent Kinase Assay; format: biochemical
T4 construct: purchased Promega
T4 sequence (Q8N4C8 whole entry): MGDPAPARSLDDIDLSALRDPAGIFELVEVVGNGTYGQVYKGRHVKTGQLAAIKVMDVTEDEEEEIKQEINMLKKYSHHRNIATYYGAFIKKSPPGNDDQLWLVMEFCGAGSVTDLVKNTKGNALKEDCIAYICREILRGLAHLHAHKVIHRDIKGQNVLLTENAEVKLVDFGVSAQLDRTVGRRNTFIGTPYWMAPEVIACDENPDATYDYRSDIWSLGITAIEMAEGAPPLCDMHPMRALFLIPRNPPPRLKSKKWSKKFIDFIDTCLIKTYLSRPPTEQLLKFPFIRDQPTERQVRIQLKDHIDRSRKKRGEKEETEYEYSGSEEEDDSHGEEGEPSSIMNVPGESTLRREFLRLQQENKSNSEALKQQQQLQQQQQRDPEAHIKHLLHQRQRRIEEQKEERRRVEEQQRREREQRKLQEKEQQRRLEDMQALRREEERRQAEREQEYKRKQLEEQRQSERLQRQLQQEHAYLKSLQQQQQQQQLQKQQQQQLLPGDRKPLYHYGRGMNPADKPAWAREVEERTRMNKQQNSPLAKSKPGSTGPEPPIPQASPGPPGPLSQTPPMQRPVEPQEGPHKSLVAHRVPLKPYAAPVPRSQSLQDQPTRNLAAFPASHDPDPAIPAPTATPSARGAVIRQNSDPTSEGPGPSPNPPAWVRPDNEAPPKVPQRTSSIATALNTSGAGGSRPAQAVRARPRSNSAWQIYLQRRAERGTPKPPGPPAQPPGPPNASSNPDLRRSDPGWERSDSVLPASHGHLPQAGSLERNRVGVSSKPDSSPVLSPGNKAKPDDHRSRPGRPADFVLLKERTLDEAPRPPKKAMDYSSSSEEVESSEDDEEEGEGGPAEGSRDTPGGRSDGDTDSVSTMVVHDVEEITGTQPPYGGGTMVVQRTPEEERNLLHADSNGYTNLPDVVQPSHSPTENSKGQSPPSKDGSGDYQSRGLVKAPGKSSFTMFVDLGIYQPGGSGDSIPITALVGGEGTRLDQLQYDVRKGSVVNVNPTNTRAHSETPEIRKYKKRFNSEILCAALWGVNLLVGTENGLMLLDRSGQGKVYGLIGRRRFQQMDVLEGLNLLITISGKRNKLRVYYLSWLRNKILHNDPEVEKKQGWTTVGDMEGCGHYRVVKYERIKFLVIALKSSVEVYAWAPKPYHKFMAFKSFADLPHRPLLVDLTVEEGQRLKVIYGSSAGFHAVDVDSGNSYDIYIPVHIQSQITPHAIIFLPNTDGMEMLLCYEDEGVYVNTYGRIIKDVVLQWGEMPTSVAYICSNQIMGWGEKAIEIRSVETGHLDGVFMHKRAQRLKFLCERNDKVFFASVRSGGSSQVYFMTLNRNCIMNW
Protocol: as §1, §2

CDK2/CyclinE1 = target: T5, CDK2/CyclinE1 (Homo sapiens, UniProt P24941); assay: Kinase-Glo Luminescent Kinase Assay; format: biochemical
T5 construct: purchased Promega
Protocol: as §1, §2

FGFR1 = target: T6, FGFR1 (Homo sapiens, UniProt P11362); assay: Kinase-Glo Luminescent Kinase Assay; format: biochemical
T6 construct: purchased Promega
T6 sequence (P11362 22-822): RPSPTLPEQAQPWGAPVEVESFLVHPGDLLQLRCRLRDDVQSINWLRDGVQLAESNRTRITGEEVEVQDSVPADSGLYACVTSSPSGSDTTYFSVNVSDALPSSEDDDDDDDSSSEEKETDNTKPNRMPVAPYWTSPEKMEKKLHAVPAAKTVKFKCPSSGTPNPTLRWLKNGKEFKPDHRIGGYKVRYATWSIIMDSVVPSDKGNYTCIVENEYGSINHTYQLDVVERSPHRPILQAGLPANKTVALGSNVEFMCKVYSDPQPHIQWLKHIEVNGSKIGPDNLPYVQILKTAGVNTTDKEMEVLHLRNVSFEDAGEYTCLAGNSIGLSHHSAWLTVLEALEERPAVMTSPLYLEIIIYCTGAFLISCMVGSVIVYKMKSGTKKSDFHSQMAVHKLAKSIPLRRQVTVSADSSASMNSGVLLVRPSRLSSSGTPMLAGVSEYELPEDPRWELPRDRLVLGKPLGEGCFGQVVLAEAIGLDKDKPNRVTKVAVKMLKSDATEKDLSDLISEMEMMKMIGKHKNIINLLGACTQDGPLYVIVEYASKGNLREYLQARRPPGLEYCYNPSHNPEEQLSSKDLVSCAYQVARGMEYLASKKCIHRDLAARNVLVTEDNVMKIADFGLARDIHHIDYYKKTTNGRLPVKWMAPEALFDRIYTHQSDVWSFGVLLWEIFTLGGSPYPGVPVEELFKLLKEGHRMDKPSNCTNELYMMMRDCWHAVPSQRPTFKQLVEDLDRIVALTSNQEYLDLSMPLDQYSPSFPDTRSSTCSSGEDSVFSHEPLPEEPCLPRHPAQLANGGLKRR
Protocol: as §1, §2

GSK3B = target: T7, GSK3B (Homo sapiens, UniProt P49841); assay: Kinase-Glo Luminescent Kinase Assay; format: biochemical
T7 construct: purchased Promega
T7 sequence (P49841 whole entry): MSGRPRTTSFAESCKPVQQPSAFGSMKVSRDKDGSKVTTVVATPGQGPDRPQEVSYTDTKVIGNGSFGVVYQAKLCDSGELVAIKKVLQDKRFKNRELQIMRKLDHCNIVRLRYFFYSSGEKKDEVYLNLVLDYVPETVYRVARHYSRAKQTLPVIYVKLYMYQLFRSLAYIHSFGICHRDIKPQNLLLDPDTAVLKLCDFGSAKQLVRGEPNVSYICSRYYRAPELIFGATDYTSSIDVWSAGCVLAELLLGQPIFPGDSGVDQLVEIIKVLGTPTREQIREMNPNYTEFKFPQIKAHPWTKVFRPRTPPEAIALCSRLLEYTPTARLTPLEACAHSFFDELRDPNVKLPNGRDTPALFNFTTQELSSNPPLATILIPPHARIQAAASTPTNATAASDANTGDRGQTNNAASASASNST
Protocol: as §1, §2

Aurora A = target: T8, Aurora A (Homo sapiens, UniProt O14965); assay: Kinase-Glo Luminescent Kinase Assay; format: biochemical
T8 construct: purchased Promega
T8 sequence (O14965 1-403): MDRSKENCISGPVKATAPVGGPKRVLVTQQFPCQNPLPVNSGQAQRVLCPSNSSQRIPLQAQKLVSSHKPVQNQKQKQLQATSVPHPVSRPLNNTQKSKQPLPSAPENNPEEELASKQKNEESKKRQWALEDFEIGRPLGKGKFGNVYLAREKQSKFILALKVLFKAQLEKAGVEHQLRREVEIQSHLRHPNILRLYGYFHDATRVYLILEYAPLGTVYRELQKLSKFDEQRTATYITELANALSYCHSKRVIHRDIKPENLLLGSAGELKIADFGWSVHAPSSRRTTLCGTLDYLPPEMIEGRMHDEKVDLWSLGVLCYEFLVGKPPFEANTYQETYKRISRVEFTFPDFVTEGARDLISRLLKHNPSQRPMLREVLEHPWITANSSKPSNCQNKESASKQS
Protocol: as §1, §2

CK1y1 = target: T9, CK1y1 (Homo sapiens, UniProt Q9HCP0); assay: Kinase-Glo Luminescent Kinase Assay; format: biochemical
T9 construct: purchased Promega
T9 sequence (Q9HCP0 whole entry): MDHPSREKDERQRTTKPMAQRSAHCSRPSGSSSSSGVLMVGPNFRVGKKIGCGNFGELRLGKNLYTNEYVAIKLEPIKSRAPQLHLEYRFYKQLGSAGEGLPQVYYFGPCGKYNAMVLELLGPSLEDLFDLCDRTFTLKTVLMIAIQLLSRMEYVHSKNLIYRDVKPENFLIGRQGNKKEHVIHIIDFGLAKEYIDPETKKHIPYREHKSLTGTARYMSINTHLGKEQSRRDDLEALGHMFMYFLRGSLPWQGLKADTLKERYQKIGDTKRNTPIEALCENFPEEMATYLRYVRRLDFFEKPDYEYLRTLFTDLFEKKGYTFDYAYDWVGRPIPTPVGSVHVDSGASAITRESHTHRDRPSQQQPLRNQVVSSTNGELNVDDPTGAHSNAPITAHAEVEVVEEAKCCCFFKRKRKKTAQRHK
Protocol: as §1, §2

AKT1 = target: T10, AKT1 (Homo sapiens, UniProt P31749); assay: Kinase-Glo Luminescent Kinase Assay; format: biochemical
T10 construct: purchased Promega
Protocol: as §1, §2

CC(=NNc1nc2cc(F)c(F)cc2n1C)c1ccc(F)cn1 [SI-12]
luciferase expression at primary tumor and lung metastasis (whole body imaging) (MDA-MB-231 tumor cells): reduced luciferase expression at both the sites of the primary tumor and of MDA-MB-231 metastasis to the lung
tumor growth in MDA-MB-231 xenograft model (MDA-MB-231 tumor cells): can inhibit tumor growth
ROCK1 kinase inhibition (ROCK1; 5 nM): + (from 20% to 40% inhibition)
ROCK1 kinase inhibition (ROCK1; 50 nM): + (from 20% to 40% inhibition)
ROCK1 kinase inhibition (ROCK1; 1000 nM): + (from 20% to 40% inhibition)
PAK1/CDC42 kinase inhibition (PAK1/CDC42; 5 nM): − (less than 20% inhibition)
PAK1/CDC42 kinase inhibition (PAK1/CDC42; 50 nM): − (less than 20% inhibition)
PAK1/CDC42 kinase inhibition (PAK1/CDC42; 1000 nM): − (less than 20% inhibition)
SYK kinase inhibition (SYK; 5 nM): − (less than 20% inhibition)
SYK kinase inhibition (SYK; 50 nM): − (less than 20% inhibition)
SYK kinase inhibition (SYK; 1000 nM): − (less than 20% inhibition)
MINK1 kinase inhibition (MINK1; 5 nM): − (less than 20% inhibition)
MINK1 kinase inhibition (MINK1; 50 nM): − (less than 20% inhibition)
MINK1 kinase inhibition (MINK1; 1000 nM): − (less than 20% inhibition)
CDK2/CyclinE1 kinase inhibition (CDK2/CyclinE1; 5 nM): − (less than 20% inhibition)
CDK2/CyclinE1 kinase inhibition (CDK2/CyclinE1; 50 nM): − (less than 20% inhibition)
CDK2/CyclinE1 kinase inhibition (CDK2/CyclinE1; 1000 nM): − (less than 20% inhibition)
FGFR1 kinase inhibition (FGFR1; 5 nM): + (from 20% to 40% inhibition)
FGFR1 kinase inhibition (FGFR1; 50 nM): − (less than 20% inhibition)
FGFR1 kinase inhibition (FGFR1; 1000 nM): − (less than 20% inhibition)
GSK3B kinase inhibition (GSK3B; 5 nM): − (less than 20% inhibition)
GSK3B kinase inhibition (GSK3B; 50 nM): − (less than 20% inhibition)
GSK3B kinase inhibition (GSK3B; 1000 nM): − (less than 20% inhibition)
Aurora A kinase inhibition (Aurora A; 5 nM): − (less than 20% inhibition)
Aurora A kinase inhibition (Aurora A; 50 nM): − (less than 20% inhibition)
Aurora A kinase inhibition (Aurora A; 1000 nM): − (less than 20% inhibition)
CK1y1 kinase inhibition (CK1y1; 5 nM): − (less than 20% inhibition)
CK1y1 kinase inhibition (CK1y1; 50 nM): − (less than 20% inhibition)
CK1y1 kinase inhibition (CK1y1; 1000 nM): − (less than 20% inhibition)
AKT1 kinase inhibition (AKT1; 5 nM): − (less than 20% inhibition)
AKT1 kinase inhibition (AKT1; 50 nM): − (less than 20% inhibition)
AKT1 kinase inhibition (AKT1; 1000 nM): − (less than 20% inhibition)
